Data published in patent US11603355B2, “Charged ion channel blockers and methods for use” (Nocion Therapeutics, Inc., priority 2019, dated 2023).

Tests used:
[1] = PAMPA membrane permeability assay; type: in vitro ADME; conditions: permeability coefficient, pH 7.4 buffer, GIT lipid, 4 hours incubation
Experimental: The PAMPA assay (pION, Inc., Woburn Mass.) was used to determine the ability of compounds of the invention to cross an artificial lipid membrane by passive diffusion. Test compounds were dissolved in DMSO (10 mM) and diluted 200-fold in buffer (pION Inc., pH 7.4) to provide 50 uM stock solutions. Buffer (150 μL) was added to a UV blank plate and stock solutions (150 μL) were transferred to a UV reference plate. The blank and reference spectrum were read using a spectrophotometer. Stock solutions (200 μL) were added to the donor plate of the PAMPA sandwich plate and an accept plate painted with GIT lipid (pION Inc, 5) was placed on top. Buffer (200 μL) was added to the acceptor plate and the PAMPA sandwich plate was incubated for 4 hours. Aliquots (150 μL) from the acceptor plate were added to a UV plate and read as acceptor spectrum. Aliquots (150 μL) of the donor solutions were added to a UV analysis plate and read as donor spectrum. The permeability coefficient of test compounds was calculated using PAMPA Explorer™ software (version 3.5.0.4) based on the AUC of the reference plate, the donor plate, and the acceptor plate.
The PAMPA permeability results (10^−6 cm/s) of representative compounds are reported as “+” (<0.1 10^−6 cm/s), “++” (0.1-2.0 10^−6 cm/s), “+++” (2.0-10.010^−6 cm/s) or “++++” (>10.0 10^−6 cm/s).

NaV1.7 = target: T1, NaV1.7 (Homo sapiens, UniProt Q15858); assay: Manual patch clamp, internal block of NaV1.7 current; type: cell-based; conditions: compound in internal solution, HEK293 cells, read-out: Nav1.7 Intracellular Inhibition; for inhibition at 10 µM: % inhibition at 10 μM test concentration; for inhibition at 3 µM: % inhibition at 3 μM test concentration
T1 construct: expressed in transfected cells; host or cells: HEK293 (tetracycline-inducible)
Experimental: Representative compounds of the invention were synthesized according to the described methods and tested for the ability to inhibit voltage-gated sodium channels.
NaV1.7 was expressed in HEK293 cells upon induction with tetracycline. Cells were cultured in DMEM containing 10% dialyzed Fetal Bovine Serum (VWR, Radnor, Pa.), 1% Glutamax (VWR, Radnor, Pa.), 1% Penicillin-Streptomycin (VWR, Radnor, Pa.), 100 mg/L Hygromycin (Thermo Fisher Scientific, Waltham, Mass. and 5 mg/L Blasticidin (Alfa Aesar, Haverhill, Mass.). Cells were grown and maintained at 37° C. in a humidified environment containing 10% CO2 in air. Cells were detached from the culture flask for passage and harvested using 0.05% Trypsin-EDTA (Thermo Fisher Scientific, Waltham, Mass.). To induce NaV1.7, cells were induced with tetracycline (0.1-1 μg/mL, IBI Scientific, Peosta, Iowa) the day before recording and plated onto 24-well plates. Cells were washed with DPBS (VWR, Radnor, Pa.), trypsinized and then triturated five times in 10 mL of growth media to break apart cell aggregates. For one 24-well plate, 2 mL of cell suspension was mixed with 23 mL of fresh growth media and 0.1-1 μg/mL tetracycline added. 1 ml of mixed media with cells was then added to each well of a 24-well plate, with a 12 mm coverslip already placed in the bottom of the well. Cells were then incubated in 37° C. and 10% CO2 overnight.
The intracellular solution contained the following (in mM) CsCl 135, NaCl 10, EGTA 10, HEPES 10, MgCl2 2, adjusted to pH 7.2 with CsOH. The external solution was a normal Ringer solution containing (in mM) NaCl 155, HEPES 10, glucose 10, KCl 3.5, CaCl2 1.5, MgCl2 1 adjusted to pH 7.4 with NaOH. CsCl is from Alfa Aesar, Haverhill, Mass. All other chemicals are from Sigma-Aldrich, St. Louis, Mo. In order to test the degree of internal block by test compounds the compounds were dissolved in internal solution at the indicated test concentration. […] In order to test the degree of external block by test compounds the compounds were dissolved in external solution at the indicated test concentration.
18-24 hours after cells were induced with tetracycline, coverslips were placed into a chamber filled with Normal Ringer solution at room temperature and the chamber placed on a microscope. Pipettes were pulled from borosilicate glass on a P97 puller (Sutter Instrument, Novato, Calif.) and polished with a MF-830 Microforge (Narishige International USA, Inc., Amityville, N.Y.) to have a resistance of 1.5-2.5 MΩ when filled with CsCl internal solution at room temperature. Healthy cells (those that are round and translucent with no visible blemishes) were chosen for seal formation. A seal was formed between the pipette and the cell, and a brief pulse of suction was used to “break in” and establish the whole-cell configuration. The membrane potential was held at −100 mV before the voltage protocol began. Only cells with series resistance between 1.5-5 MΩ were retained for analysis. The voltage protocol was as follows: Cells were held at −100 mV for 12 ms followed by a hyperpolarizing step to −105 mV for 12 ms to monitor the leak. Cells were then stepped back to −100 mV for 40 ms. Cells were then depolarized to −20 mV for 10 ms and then returned to −100 mV for 26 ms.
Once the recording was started, the voltage protocol was run at 30 second intervals for 5 minutes to get a stable baseline. This was followed by four 30-second periods of 5 Hz stimulation of the same voltage protocol separated by 1 minute of rest which was then followed by 0.33 Hz stimulation after the last train. Currents were recorded using PatchMaster software with Heka EPC10 (HEKA Electronics, Lambrecht, Germany). Only cells with inward current amplitudes at −20 mV between 400 pA and 4 nA were accepted. In addition, cells having leak currents greater than 10% of their current amplitudes were discarded. […]

T1 sequence (Q15858 whole entry): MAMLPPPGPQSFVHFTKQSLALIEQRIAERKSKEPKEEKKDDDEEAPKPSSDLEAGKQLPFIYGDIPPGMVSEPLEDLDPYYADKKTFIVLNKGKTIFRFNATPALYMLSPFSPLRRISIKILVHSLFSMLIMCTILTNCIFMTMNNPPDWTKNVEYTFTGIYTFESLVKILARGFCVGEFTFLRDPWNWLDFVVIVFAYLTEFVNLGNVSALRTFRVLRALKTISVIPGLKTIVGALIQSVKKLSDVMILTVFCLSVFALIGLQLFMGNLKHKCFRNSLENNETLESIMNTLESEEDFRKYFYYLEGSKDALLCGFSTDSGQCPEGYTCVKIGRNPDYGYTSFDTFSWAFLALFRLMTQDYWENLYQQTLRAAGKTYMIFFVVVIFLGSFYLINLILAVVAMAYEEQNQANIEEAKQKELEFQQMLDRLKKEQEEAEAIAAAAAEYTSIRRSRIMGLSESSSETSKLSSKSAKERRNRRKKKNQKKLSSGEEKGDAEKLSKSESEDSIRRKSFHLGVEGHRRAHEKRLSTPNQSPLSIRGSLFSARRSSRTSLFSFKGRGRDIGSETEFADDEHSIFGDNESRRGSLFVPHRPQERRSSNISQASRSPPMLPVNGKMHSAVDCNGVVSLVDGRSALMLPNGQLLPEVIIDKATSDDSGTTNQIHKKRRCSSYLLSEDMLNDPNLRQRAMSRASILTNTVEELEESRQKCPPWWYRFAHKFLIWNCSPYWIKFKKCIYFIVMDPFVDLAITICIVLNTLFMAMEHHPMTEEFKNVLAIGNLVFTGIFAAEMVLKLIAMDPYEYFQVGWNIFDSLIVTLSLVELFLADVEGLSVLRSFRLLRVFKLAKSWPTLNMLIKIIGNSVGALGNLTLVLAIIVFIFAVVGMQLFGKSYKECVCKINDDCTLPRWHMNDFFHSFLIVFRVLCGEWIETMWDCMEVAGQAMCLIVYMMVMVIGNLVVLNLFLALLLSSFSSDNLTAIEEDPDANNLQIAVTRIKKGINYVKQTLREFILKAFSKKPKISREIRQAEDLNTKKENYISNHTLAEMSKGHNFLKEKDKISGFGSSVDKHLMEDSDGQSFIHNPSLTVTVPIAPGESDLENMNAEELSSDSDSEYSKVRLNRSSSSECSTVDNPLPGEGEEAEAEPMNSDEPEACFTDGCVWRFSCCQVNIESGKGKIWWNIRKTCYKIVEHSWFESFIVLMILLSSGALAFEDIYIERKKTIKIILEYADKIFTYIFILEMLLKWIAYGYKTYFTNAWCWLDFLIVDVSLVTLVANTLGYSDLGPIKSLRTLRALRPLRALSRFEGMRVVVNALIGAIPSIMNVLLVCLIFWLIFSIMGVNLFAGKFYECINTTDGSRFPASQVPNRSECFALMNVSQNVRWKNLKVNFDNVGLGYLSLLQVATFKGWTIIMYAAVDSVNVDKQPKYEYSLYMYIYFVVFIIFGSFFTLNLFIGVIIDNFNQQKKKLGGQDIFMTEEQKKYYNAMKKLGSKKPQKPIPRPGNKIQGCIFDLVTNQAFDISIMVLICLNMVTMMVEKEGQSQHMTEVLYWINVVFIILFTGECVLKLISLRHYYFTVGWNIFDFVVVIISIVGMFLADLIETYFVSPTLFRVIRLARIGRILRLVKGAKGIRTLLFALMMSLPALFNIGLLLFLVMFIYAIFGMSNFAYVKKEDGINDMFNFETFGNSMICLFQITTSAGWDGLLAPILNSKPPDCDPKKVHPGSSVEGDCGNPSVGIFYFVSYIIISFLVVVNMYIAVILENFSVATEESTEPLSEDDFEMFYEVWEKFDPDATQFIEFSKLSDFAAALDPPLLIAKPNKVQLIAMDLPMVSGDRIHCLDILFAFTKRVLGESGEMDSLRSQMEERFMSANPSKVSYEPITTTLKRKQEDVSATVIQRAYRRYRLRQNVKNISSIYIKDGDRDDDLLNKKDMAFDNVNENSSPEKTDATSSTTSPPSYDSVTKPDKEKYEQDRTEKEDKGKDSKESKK

| Structure (SMILES) | PAMPA (10^−6 cm/s) [1] | inhibition at 10 µM (NaV1.7) [%] | inhibition at 3 µM (NaV1.7) [%] |
| --- | --- | --- | --- |
| CCCCNC(=O)C1CCC[N+](CC(=O)Nc2c(C)cccc2C)(Cc2ccccc2)C1.[Br-] (stereo not drawn) [Compound 59A] | + (“+” (<0.1 10^−6 cm/s)) | 70 to 95 | < 40 |
| CCC(C(=O)Nc1c(C)cccc1C)[N+]1(Cc2cnn(C)c2)CCCCC1.[Br-] (stereo not drawn) [Compound 34A, 1-(1-((2,6-dimethylphenyl)amino)-1-oxobutan-2-yl)-1-((1-methyl-1H-pyrazol-4-yl)methyl) piperidin-1-ium bromide] | + (“+” (<0.1 10^−6 cm/s)) |  | 70 to 90 |
| CCCCN(C(=O)OC(C)(C)C)c1ccc(NC(=O)C[N+]2(Cc3ccccc3)CCCCCC2)cc1 [Compound 40A, 1-benzyl-1-(2-((4-((tert-butoxycarbonyl) (butyl)amino)phenyl)amino)-2-oxoethyl) azepan-1-ium bromide] |  | 40 to 70 |  |
| Cc1cccc(C)c1N1CCCC([N+]2(Cc3ccccc3)CCCCCC2)C1=O (stereo not drawn) [Compound 93A] | + (“+” (<0.1 10^−6 cm/s)) |  | 70 to 90 |
| CCC(C(=O)Nc1c(C)cc(C)cc1C)[N+]1(Cc2ccccc2)CCCCC1.[Br-] (stereo not drawn) [Compound 39A, 1-benzyl-1-(1-(mesitylamino)-1-oxobutan-2-yl) piperidin-1-ium bromide] | + (“+” (<0.1 10^−6 cm/s)) | 70 to 95 |  |
| CCC(C(=O)Nc1c(C)cccc1C)[N+]1(Cc2cc(C)on2)CCCCC1 (stereo not drawn) [Compound 27A] | + (“+” (<0.1 10^−6 cm/s)) | 70 to 95 |  |
| Cc1cccc(C)c1NC(=O)C[N+]1(Cc2ccccc2)CCCC1.[Br-] [Compound 5A, 1-benzyl-1-(2-((2,6-dimethylphenyl)amino)-2-oxoethyl) pyrrolidin-1-ium bromide] | + (“+” (<0.1 10^−6 cm/s)) | 70 to 95 | > 90 |
| CCC(C(=O)Nc1c(C)cccc1C)[N+]1(Cc2cnc(C)s2)CCCCC1 (stereo not drawn) [Compound 25A] |  | 40 to 70 |  |
| Cc1cccc(C)c1NC(=O)C[N+]1(Cc2ccccc2)CCCCCCC1.[Br-] [Compound 31A, 1-benzyl-1-(2-((2,6-dimethylphenyl)amino)-2-oxoethyl)azocan-1-ium bromide] | + (“+” (<0.1 10^−6 cm/s)) | > 95 | > 90 |
| CCCCNc1ccc(NC(=O)C[N+]2(Cc3ccccc3)CCCCC2)cc1.O=C([O-])O [Compound 42A, 1-benzyl-1-(2-((4-(butylamino)phenyl)amino)-2-oxoethyl) piperidin-1-ium carbonate] | ++ (“++” (0.1-2.0 10^−6 cm/s)) |  |  |
| CCC(C(=O)Nc1c(C)cccc1C)[N+]1(Cc2ccccc2C#N)CCCCC1 (stereo not drawn) [Compound 15A] | + (“+” (<0.1 10^−6 cm/s)) | > 95 |  |
| CC[N+](CC)(CC(=O)Nc1c(C)cccc1C)Cc1ccccc1 [Compound 1A, N-benzyl-2-((2,6-dimethylphenyl)amino)-N,N-diethyl-2-oxoethan-1-aminium bromide] |  | 70 to 95 |  |
| CCCCNc1cc(C)c(NC(=O)C(CC)[N+]2(Cc3ccccc3)CCCCC2)c(C)c1 (stereo not drawn) [Compound 43A, 1-benzyl-1-(1-((4-(butylamino)-2,6-dimethylphenyl)amino)-1-oxobutan-2-yl) piperidin-1-ium carbonate] |  | 70 to 95 |  |

Results, then the compound that gave them:

| PAMPA (10^−6 cm/s) [1] | inhibition at 10 µM (NaV1.7) [%] | inhibition at 3 µM (NaV1.7) [%] | Structure (SMILES) |
| --- | --- | --- | --- |
| + (“+” (<0.1 10^−6 cm/s)) | 70 to 95 |  | CCC(C(=O)Nc1c(C)cccc1C)[N+]1(Cc2ccc(C#N)cc2)CCCCC1 (stereo not drawn) [Compound 13A] |
| + (“+” (<0.1 10^−6 cm/s)) | 70 to 95 |  | CCC(C(=O)Nc1c(C)cccc1C)[N+]1(Cc2cccc(C#N)c2)CCCCC1 (stereo not drawn) [Compound 14A] |
| + (“+” (<0.1 10^−6 cm/s)) | > 95 |  | CCC(C(=O)Nc1c(C)cccc1C)[N+]1(Cc2ccccc2Cl)CCCCC1 (stereo not drawn) [Compound 12A] |
| + (“+” (<0.1 10^−6 cm/s)) | 70 to 95 |  | CCC(C(=O)Nc1c(C)cccc1C)[N+]1(Cc2ccccc2C)CCCCC1 (stereo not drawn) [Compound 18A] |
|  | > 95 |  | CCC(C(=O)Nc1c(C)cccc1C)[N+]1(Cc2cccc(Cl)c2)CCCCC1 (stereo not drawn) [Compound 11A] |
| + (“+” (<0.1 10^−6 cm/s)) | > 95 | > 90 | CCc1cccc(C[N+]2(C(CC)C(=O)Nc3c(C)cccc3C)CCCCC2)c1 (stereo not drawn) [Compound 20A] |
| + (“+” (<0.1 10^−6 cm/s)) | 40 to 70 |  | CCc1ccc(C[N+]2(C(CC)C(=O)Nc3c(C)cccc3C)CCCCC2)cc1 (stereo not drawn) [Compound 19A] |
| + (“+” (<0.1 10^−6 cm/s)) | 70 to 95 |  | CCC(C(=O)Nc1c(C)cccc1C)[N+]1(Cc2ccc(F)cc2)CCCCC1 (stereo not drawn) [Compound 7A] |
|  | 70 to 95 | > 90 | CCC(C(=O)Nc1c(C)cccc1C)[N+]1(Cc2cccc(O)c2)CCCCC1 (stereo not drawn) [Compound 29A, 1-(1-((2,6-dimethylphenyl)amino)-1-oxobutan-2-yl)-1-(3-hydroxybenzyl) piperidin-1-ium carbonate] |
| + (“+” (<0.1 10^−6 cm/s)) | > 95 | > 90 | CCc1ccccc1C[N+]1(C(CC)C(=O)Nc2c(C)cccc2C)CCCCC1 (stereo not drawn) [Compound 21A] |
| + (“+” (<0.1 10^−6 cm/s)) | > 95 | > 90 | CCC(C(=O)Nc1c(C)cccc1C)[N+]1(Cc2ccccc2)CCCCCC1.[Br-] (stereo not drawn) [Compound 30A, 1-benzyl-1-(1-((2,6-dimethylphenyl)amino)-1-oxobutan-2-yl) azepan-1-ium bromide] |
|  | > 95 | > 90 | CCC(C(=O)Nc1c(C)cccc1C)[N+]1(Cc2ccccc2OC)CCCCC1 (stereo not drawn) [Compound 24A, 1-(1-((2,6-dimethylphenyl)amino)-1-oxobutan-2-yl)-1-(2-methoxybenzyl) piperidin-1-ium bromide] |
|  | 70 to 95 | 70 to 90 | CCC(C(=O)Nc1c(C)cccc1C)[N+]1(Cc2ccc(OC)cc2)CCCCC1 (stereo not drawn) [Compound 22A] |
|  | 40 to 70 | < 40 | CCC(C(=O)Nc1c(C)cccc1C)[N+]1(Cc2ccccc2O)CCCCC1 (stereo not drawn) [Compound 28A, 1-(1-((2,6-dimethylphenyl)amino)-1-oxobutan-2-yl)-1-(2-hydroxybenzyl) piperidin-1-ium 2,2,2-trifluoroacetate] |
